Experimental data from patent EP0854192A2, “Production of human cathepsin and its use” (Takeda Chemical Industries, Ltd., priority 1992, dated 1994).
Where a SMILES comes first, the peptide text is derived from it. [ ]: non-standard residue; d: D form. The star is where a group is joined. Sta = CC(C)C[C@H](N)[C@@H](O)CC(=O)O; Isovaleryl = CC(C)CC(=O)*; Cbz = O=C(OCc1ccccc1)*; CHN2 = [N-]=[N+]=C*

Target: human cathepsin L (recombinant, of human renal origin cDNA, expressed in COS-7 cells, concentrated culture supernatant) (Homo sapiens, UniProt P07711)
Sequence (P07711 114-333): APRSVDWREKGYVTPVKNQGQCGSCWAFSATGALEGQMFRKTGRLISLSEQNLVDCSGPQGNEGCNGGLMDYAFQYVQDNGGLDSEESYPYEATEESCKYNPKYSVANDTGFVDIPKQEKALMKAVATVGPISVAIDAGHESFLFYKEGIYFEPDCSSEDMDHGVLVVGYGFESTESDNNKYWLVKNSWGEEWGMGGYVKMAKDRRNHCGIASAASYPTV
Experiment: Cathepsin L enzyme activity assay with synthetic substrate Z-Phe-Arg-NMec in the presence of enzyme inhibitors (method of Barrett and Kirschke)
Type: biochemical
Conditions: 30°C, 10 minutes; for remaining activity at 1 µM: 1 µM inhibitor added after enzyme activation
Protocol: The culture supernatant of COS-7 transformant prepared in Example 2 was concentrated about 20-fold with Centricut (produced by Kurabo Industries, Ltd., cut-off molecular weight = 10000) and assayed for cathepsin L enzyme activity, according to the method of A. J. Barrett and H. Kirschke [Methods in Enzymology 80, 535 (1981)]. To 25 µl of this concentrated culture supernatant were added 25 µl of 1 M sodium formate buffer (pH 3.0) and 10 µl of 0.1 M DTT, and water was added for a final volume of 250 µl, followed by incubation at 37°C for 30 seconds. After 125 µl of activating buffer (340 mM sodium acetate, 60 mM acetic acid, 4 mM EDTA disodium, pH 5.5) was added, the mixture was kept standing at 30°C for 1 minute for activation. The enzyme reaction was carried out at 30°C for 10 minutes in the presence of 125 µl of a synthetic substrate solution [20 µM Z-Phe-Arg-NMec (Z: benzyloxycarbonyl-, NMec: -7-(4-methyl)coumarylamide)], and stopped by the addition of 500 µl of a reaction stopper (100 mM sodium monochloroacetate, 30 mM sodium acetate, 70 mM acetic acid, pH 4.3). For a control experiment, a culture supernatant of COS-7 cells not expressing cathepsin L was used as an enzyme solution. After termination of the reaction, 100 µl of the reaction mixture was injected into a 96-well fluoroplate (produced by Labo Systems), and the fluorescence intensity of free 7-amino-4-methylcoumarin was determined at a wavelength of 450 nm (excitation wavelength = 365 nm) using a fluorometer FCA (produced by Baxter). In assessing the effects of the following enzyme inhibitors on the present enzyme activity, the inhibitor was added after the above enzyme activating operation. The enzyme inhibitors used were 10 µM leupeptin (cysteine protease inhibitor), 10 µM (p-amidinophenyl)methanesulfonyl fluoride hydrochloride (APMSF: serine protease inhibitor), 1 µM Z-Phe-Phe-CHN2 (cathepsin L inhibitor, -CHN2: -diazomethane) and 1 µM pepstatin A (aspartic acid protease inhibitor).

[1] = read-out: enzyme activity in the presence of enzyme inhibitor, in comparison with the inhibitor-free control

remaining activity at 1 µM [1] [%] | SMILES | other results
– | Cl.N=C(N)c1ccc(CS(=O)(=O)F)cc1 [APMSF, (p-amidinophenyl)methanesulfonyl fluoride hydrochloride] | enzyme activity in the presence of enzyme inhibitor, in comparison with the inhibitor-free control (10 µM inhibitor added after enzyme activation, remaining activity): 79%
6.3 | [N-]=[N+]=CC(=O)[C@H](Cc1ccccc1)NC(=O)[C@H](Cc1ccccc1)NC(=O)OCc1ccccc1 [Z-Phe-Phe-CHN2] (Cbz-Phe-Phe-CHN2) | –
– | CC(=O)N[C@@H](CC(C)C)C(=O)N[C@@H](CC(C)C)C(=O)N[C@H](C=O)CCCNC(=N)N [leupeptin] | remaining activity at 10 µM (10 µM inhibitor added after enzyme activation, read-out: enzyme activity in the presence of enzyme inhibitor, in comparison with the inhibitor-free control): 3.4%
99 | CC(C)CC(=O)N[C@H](C(=O)N[C@H](C(=O)N[C@@H](CC(C)C)[C@@H](O)CC(=O)N[C@@H](C)C(=O)N[C@@H](CC(C)C)[C@@H](O)CC(=O)O)C(C)C)C(C)C [pepstatin A] (Isovaleryl-VV[Sta]A[Sta]-OH) | –
